The target of assay [1] is T1, W139F-E360W PGDH (Escherichia coli, UniProt P0A9T0, E360W/W139F). Description: Stopped-flow transient kinetics of L-serine binding. The arrangement: species or system E. coli. To be noted: for k3: estimated from Figure 9; for k2: forward rate constant of conformational change after binding; for k−3: reverse rate constant of conformational change before binding.
Assay [2] has as its target E. coli PGDH (native, free of bound NADH) (Escherichia coli, UniProt P0A9T0). Description: Pre-steady-state stopped-flow analysis of NADH binding. To be noted: saturating L-serine versus serine absent.
Assay [3] has as its target E. coli D-3-phosphoglycerate dehydrogenase (PGDH), native enzyme (Escherichia coli, UniProt P0A9T0). Description: Steady-state inhibition of enzymatic activity of native PGDH by L-serine. The format is biochemical.
Assay [4] has as its target T1, W139F-E360W PGDH. Briefly: Steady-state serine binding by tryptophan fluorescence quenching titration. The arrangement: species or system E. coli. To be noted: 2.5 μM enzyme subunits, fit to Hill equation (eq 11).
The target in assay [5] is T1, W139F-E360W PGDH. Description: Steady-state inhibition of enzymatic activity of W139F-E360W PGDH by L-serine. To be noted: W139F-E360W mutant. The format is biochemical, E. coli.

Marks after values point to notes of the source that are not given here.

In the case of `N[C@@H](CO)C(=O)O` [L-serine], the k3 entry in assay [1] (kobs1, printed >0–20) was “(>0–20 s^−1) ^b”; in assay [1] (kobs2, printed >0–2) it was “(>0–2 s^−1) ^b”. Moreover, the k2 in assay [1] (kobs1) was 61 ± 4 s⁻¹; in assay [1] (kobs2) it was 161 ± 18 s⁻¹. Besides, the “k−3” value in assay [1] (kobs1) amounted to 88 ± 7 s⁻¹; in assay [1] (kobs2), 166 ± 22 s⁻¹. In addition, the “Increase in the Kd for NADH binding caused by serine, first set of sites” value in assay [2] is on record as 15 fold. Besides, in assay [2], the “Increase in the Kd for NADH binding caused by serine, other set of sites” value worked out at 5 fold. Further, the “Hill coefficient for inhibition of enzymatic activity” value in assay [3] is recorded as 1.9 ± 0.1; in assay [5], 2.2 ± 0.1. In addition, the “K0.5 for fluorescence quenching” value in assay [4] is reported as 13.6 ± 0.5.
